Earlier results on three compounds are cited in EP0112266B1, “Substituted tropyl and pseudotropyl benzoates and their use in migraine treatment” (MERRELL DOW FRANCE ET CIE, priority 1982, dated 1984).

Each structure is given as a SMILES string.

The pA2 is a measure of antagonist potency on a negative log scale.

For series [1] the following is noted: slow intravenous injection, 10 mg.
The subject of series [2] is isolated guinea pig ileum. The settings on record: stated in Schultz et al, 1972.
A further series has as its target T1, 5-HT M-receptor (Oryctolagus cuniculus, UniProt G1TUQ4).
T1 sequence (G1TUQ4 24-513): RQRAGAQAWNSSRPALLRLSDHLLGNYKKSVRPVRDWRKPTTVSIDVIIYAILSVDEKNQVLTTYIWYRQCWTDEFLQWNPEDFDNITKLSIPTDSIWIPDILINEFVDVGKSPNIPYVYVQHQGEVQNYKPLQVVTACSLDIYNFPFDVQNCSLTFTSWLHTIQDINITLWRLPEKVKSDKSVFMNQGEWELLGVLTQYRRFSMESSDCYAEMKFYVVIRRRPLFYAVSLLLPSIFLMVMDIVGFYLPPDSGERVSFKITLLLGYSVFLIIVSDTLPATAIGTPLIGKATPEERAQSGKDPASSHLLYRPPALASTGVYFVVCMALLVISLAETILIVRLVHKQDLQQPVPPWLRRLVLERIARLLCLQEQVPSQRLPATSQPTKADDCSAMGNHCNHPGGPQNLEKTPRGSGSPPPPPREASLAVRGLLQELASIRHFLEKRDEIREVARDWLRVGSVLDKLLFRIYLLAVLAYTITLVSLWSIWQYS
The settings on record: potency as 5-HT M-receptor antagonist; literature values (Fozard et al, Eur. J. Pharmacol. 1978/1979).

As for `CCN(CC)CCNC(=O)c1cc(Cl)c(N)cc1OC` [metoclopramide], the “relief of acute migraine attack” value in series [1] is listed as “immediate relief”.
As for `CN1[C@@H]2CC[C@H]1C[C@@H](OC(=O)c1ccccc1Cl)C2` [tropyl 2-chlorobenzoate], the spasmolytic- inducing activity result in series [2] is on record as “spasmolytic- inducing activity”.
Regarding `CN1[C@@H]2CC[C@H]1C[C@@H](OC(=O)c1ccccc1)C2` [benzoyl tropine], at 5-HT M-receptor, the pA2 is listed as 7.2.
